Results taken from PubChem BioAssay AID1963839 (Molecular Pharmacology Branch, DTP, NCI, 2024).

System: 817829-284-R-J1-PDC complex spheroid viability
Assay: Anticancer human tumor 817829-284-R-J1-PDC patient-derived colon adenocarcinoma cell line growth inhibition [POLQ]
Conditions: for IC50: curve of first compound; for viability, T/C: stronger effect = lower value
How it was run: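 Three-cell-type spheroids modelling solid tumor plus stroma served as the readout system; POL inhibitors were tested individually and in combination, concentration ranges set by clinical Cmax where known.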

[1] = second compound 0.0316 µM, first compound 0.00316 µM
[2] = second compound 0.0316 µM, first compound 0.01 µM
[3] = second compound 0.0316 µM, first compound 0.0316 µM
[4] = second compound 0.0316 µM, first compound 0.1 µM
[5] = second compound 0.0316 µM, first compound 0.316 µM
[6] = second compound 0.0316 µM, first compound 1 µM
[7] = second compound 0.1 µM, first compound 0.00316 µM
[8] = second compound 0.1 µM, first compound 0.01 µM
[9] = second compound 0.1 µM, first compound 0.0316 µM
[10] = second compound 0.1 µM, first compound 0.1 µM
[11] = second compound 0.1 µM, first compound 0.316 µM
[12] = second compound 0.1 µM, first compound 1 µM
[13] = second compound 0.316 µM, first compound 0.00316 µM
[14] = second compound 0.316 µM, first compound 0.01 µM
[15] = second compound 0.316 µM, first compound 0.0316 µM
[16] = second compound 0.316 µM, first compound 0.1 µM
[17] = second compound 0.316 µM, first compound 0.316 µM
[18] = second compound 0.316 µM, first compound 1 µM
[19] = second compound 1 µM, first compound 0.00316 µM
[20] = second compound 1 µM, first compound 0.01 µM
[21] = second compound 1 µM, first compound 0.0316 µM
[22] = second compound 1 µM, first compound 0.1 µM
[23] = second compound 1 µM, first compound 0.316 µM
[24] = second compound 1 µM, first compound 1 µM
[25] = second compound 3.16 µM, first compound 0.00316 µM
[26] = second compound 3.16 µM, first compound 0.01 µM
[27] = second compound 3.16 µM, first compound 0.0316 µM
[28] = second compound 3.16 µM, first compound 0.1 µM
[29] = second compound 3.16 µM, first compound 0.316 µM
[30] = second compound 3.16 µM, first compound 1 µM
[31] = second compound 10 µM, first compound 0.00316 µM
[32] = second compound 10 µM, first compound 0.01 µM
[33] = second compound 10 µM, first compound 0.0316 µM
[34] = second compound 10 µM, first compound 0.1 µM
[35] = second compound 10 µM, first compound 0.316 µM
[36] = second compound 10 µM, first compound 1 µM
[37] = second compound 0.0316 µM, first compound 3.16 µM
[38] = second compound 0.0316 µM, first compound 10 µM
[39] = second compound 0.1 µM, first compound 3.16 µM
[40] = second compound 0.1 µM, first compound 10 µM
[41] = second compound 0.316 µM, first compound 3.16 µM
[42] = second compound 0.316 µM, first compound 10 µM
[43] = second compound 1 µM, first compound 3.16 µM
[44] = second compound 1 µM, first compound 10 µM
[45] = second compound 3.16 µM, first compound 3.16 µM
[46] = second compound 3.16 µM, first compound 10 µM
[47] = second compound 10 µM, first compound 3.16 µM
[48] = second compound 10 µM, first compound 10 µM
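Further: spheroids exposed to compounds for 7 days.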
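Wherever viability, T/C is given: 100% = DMSO vehicle-treated spheroids.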

Molecule C=CCn1c(=O)c2cnc(Nc3ccc(N4CCN(C)CC4)cc3)nc2n1-c1cccc(C(C)(C)O)n1 + Cc1cccc(N(C)C(=O)C2C(O)CCN2c2nc(C)cc(C(F)(F)F)c2C#N)c1 has an IC50 (second compound 0.0316 µM) of 155 nM, an IC50 (second compound 0.1 µM) of 218 nM and an IC50 (second compound 0.316 µM) of 259 nM. The IC50 (second compound 1 µM) was 236 nM, the IC50 (second compound 3.16 µM) was 258 nM and the IC50 (second compound 10 µM) was 233 nM. The viability, T/C [1] was 90.2%, the viability, T/C [2] was 91.5% and the viability, T/C [3] was 102%. The viability, T/C [4] was 53.4%, the viability, T/C [5] was 34.8% and the viability, T/C [6] was 5.25%. It also gave a viability, T/C [7] of 91.6%, a viability, T/C [8] of 92.9% and a viability, T/C [9] of 89.3%. The viability, T/C [10] was 71.1%, the viability, T/C [11] was 39.9% and the viability, T/C [12] was 5.58%. It also gave a viability, T/C [13] of 98.3%, a viability, T/C [14] of 107% and a viability, T/C [15] of 93.8%. The viability, T/C [16] was 84.9%, the viability, T/C [17] was 42.6% and the viability, T/C [18] was 7.22%. It also gave a viability, T/C [19] of 111%, a viability, T/C [20] of 98.2% and a viability, T/C [21] of 101%. The viability, T/C [22] was 82.4%, the viability, T/C [23] was 38.7% and the viability, T/C [24] was 6.42%. The viability, T/C [25] was 104%, the viability, T/C [26] was 102% and the viability, T/C [27] was 99.6%. For the same molecule, the viability, T/C [28] was 74.9%, the viability, T/C [29] was 45.3% and the viability, T/C [30] was 6.52%. The viability, T/C [31] was 118%, the viability, T/C [32] was 88.9% and the viability, T/C [33] was 86.2%. The viability, T/C [34] was 79.4%, the viability, T/C [35] was 39.5% and the viability, T/C [36] was 5.63%.
With CC1COCCN1c1cc(C2(S(C)(=N)=O)CC2)nc(-c2ccnc3[nH]ccc23)n1 (stereo not drawn) + Cc1cccc(N(C)C(=O)C2C(O)CCN2c2nc(C)cc(C(F)(F)F)c2C#N)c1 the IC50 (second compound 0.0316 µM) was 377 nM, the IC50 (second compound 0.1 µM) was 407 nM and the IC50 (second compound 0.316 µM) was 567 nM. For the same molecule, the IC50 (second compound 1 µM) was 337 nM, the IC50 (second compound 3.16 µM) was 394 nM and the IC50 (second compound 10 µM) was 454 nM. The viability, T/C [3] was 114%, the viability, T/C [4] was 82.1% and the viability, T/C [5] was 62%. The viability, T/C [6] was 20.7%, the viability, T/C [37] was 9.12% and the viability, T/C [38] was 5.39%. It also gave a viability, T/C [9] of 80.6%, a viability, T/C [10] of 91.1% and a viability, T/C [11] of 53.5%. The viability, T/C [12] was 24.7%, the viability, T/C [39] was 7.03% and the viability, T/C [40] was 4.47%. For the same molecule, the viability, T/C [15] was 121%, the viability, T/C [16] was 102% and the viability, T/C [17] was 75.9%. The viability, T/C [18] was 25.7%, the viability, T/C [41] was 9.72% and the viability, T/C [42] was 5.65%. The viability, T/C [21] was 104%, the viability, T/C [22] was 118% and the viability, T/C [23] was 52%. The viability, T/C [24] was 30.7%, the viability, T/C [43] was 7.73% and the viability, T/C [44] was 5.65%. It also gave a viability, T/C [27] of 105%, a viability, T/C [28] of 86.3% and a viability, T/C [29] of 54.6%. For the same molecule, the viability, T/C [30] was 28.7%, the viability, T/C [45] was 7.73% and the viability, T/C [46] was 4.73%. It also gave a viability, T/C [33] of 75.6%, a viability, T/C [34] of 92.2% and a viability, T/C [35] of 56.6%. It also gave a viability, T/C [36] of 27.7%, a viability, T/C [47] of 8.08% and a viability, T/C [48] of 5.23%.
With CNCc1ccc(-c2[nH]c3cc(F)cc4c3c2CCNC4=O)cc1 + Cc1cccc(N(C)C(=O)C2C(O)CCN2c2nc(C)cc(C(F)(F)F)c2C#N)c1 the IC50 (second compound 0.0316 µM) was 2240 nM, the IC50 (second compound 0.1 µM) was 7640 nM and the IC50 (second compound 0.316 µM) was 3410 nM. For the same molecule, the IC50 (second compound 1 µM) was 2690 nM, the IC50 (second compound 3.16 µM) was 3320 nM and the IC50 (second compound 10 µM) was 3840 nM. It also gave a viability, T/C [3] of 87.5%, a viability, T/C [4] of 67.2% and a viability, T/C [5] of 68.4%. It also gave a viability, T/C [6] of 58.2%, a viability, T/C [37] of 49.9% and a viability, T/C [38] of 33.9%. The viability, T/C [9] was 74.9%, the viability, T/C [10] was 67.8% and the viability, T/C [11] was 86.7%. For the same molecule, the viability, T/C [12] was 60.4%, the viability, T/C [39] was 74.7% and the viability, T/C [40] was 43%. It also gave a viability, T/C [15] of 97.8%, a viability, T/C [16] of 76.5% and a viability, T/C [17] of 70.5%. For the same molecule, the viability, T/C [18] was 66.6%, the viability, T/C [41] was 53.7% and the viability, T/C [42] was 36.3%. The viability, T/C [21] was 104%, the viability, T/C [22] was 71.9% and the viability, T/C [23] was 86.4%. For the same molecule, the viability, T/C [24] was 55.9%, the viability, T/C [43] was 51.8% and the viability, T/C [44] was 33.1%. The viability, T/C [27] was 82.4%, the viability, T/C [28] was 54.2% and the viability, T/C [29] was 79.1%. The viability, T/C [30] was 77.9%, the viability, T/C [45] was 50.9% and the viability, T/C [46] was 30.3%. It also gave a viability, T/C [33] of 70.9%, a viability, T/C [34] of 78.1% and a viability, T/C [35] of 67.1%. For the same molecule, the viability, T/C [36] was 62.5%, the viability, T/C [47] was 55.6% and the viability, T/C [48] was 31.4%.
Cn1ncnc1[C@H]1c2n[nH]c(=O)c3cc(F)cc(c23)N[C@@H]1c1ccc(F)cc1 + Cc1cccc(N(C)C(=O)C2C(O)CCN2c2nc(C)cc(C(F)(F)F)c2C#N)c1 gave an IC50 (second compound 0.0316 µM) of 10.2 nM, an IC50 (second compound 0.1 µM) of 17.9 nM and an IC50 (second compound 0.316 µM) of 14.2 nM. It also gave an IC50 (second compound 1 µM) of 6.63 nM, an IC50 (second compound 3.16 µM) of 12 nM and an IC50 (second compound 10 µM) of 6.59 nM. The viability, T/C (second compound 0.0316 µM, first compound 0.000316 µM) was 79.7%, the viability, T/C (second compound 0.0316 µM, first compound 0.001 µM) was 88.5% and the viability, T/C [1] was 79%. It also gave a viability, T/C [2] of 48.3%, a viability, T/C [3] of 39.4% and a viability, T/C [4] of 25.8%. The viability, T/C (second compound 0.1 µM, first compound 0.000316 µM) was 103%, the viability, T/C (second compound 0.1 µM, first compound 0.001 µM) was 93.2% and the viability, T/C [7] was 58.9%. The viability, T/C [8] was 69%, the viability, T/C [9] was 39.2% and the viability, T/C [10] was 30%. The viability, T/C (second compound 0.316 µM, first compound 0.000316 µM) was 65.8%, the viability, T/C (second compound 0.316 µM, first compound 0.001 µM) was 82.8% and the viability, T/C [13] was 85.4%. It also gave a viability, T/C [14] of 57.6%, a viability, T/C [15] of 36.8% and a viability, T/C [16] of 28.6%. For the same molecule, the viability, T/C (second compound 1 µM, first compound 0.000316 µM) was 89.3%, the viability, T/C (second compound 1 µM, first compound 0.001 µM) was 97.8% and the viability, T/C [19] was 68.8%. It also gave a viability, T/C [20] of 42.5%, a viability, T/C [21] of 46.1% and a viability, T/C [22] of 29.5%. The viability, T/C (second compound 3.16 µM, first compound 0.000316 µM) was 99.1%, the viability, T/C (second compound 3.16 µM, first compound 0.001 µM) was 80% and the viability, T/C [25] was 72.4%. The viability, T/C [26] was 47.4%, the viability, T/C [27] was 41.3% and the viability, T/C [28] was 28.4%. For the same molecule, the viability, T/C (second compound 10 µM, first compound 0.000316 µM) was 64.5%, the viability, T/C (second compound 10 µM, first compound 0.001 µM) was 86% and the viability, T/C [31] was 54.8%. It also gave a viability, T/C [32] of 47.1%, a viability, T/C [33] of 30.4% and a viability, T/C [34] of 29.7%.
